According to patent publication US20100212049A1, “Compositions and Methods of Use of Response Regulators” (Pioneer Hi-Bred International, Inc., priority 2005, published 2010):

Tests used:
Ckx1 transcripts [1] = experiment: Time-course of Ckx1 transcript induction by BA in maize leaf discs (Northern blot); assay type: cell-based, maize (inbred B73); conditions: 10 μM BA, after 6 hours, 25° C.
Experimental: (§1) Two experiments were performed: one was an initial experiment to determine the time course for BA induction of Ckx1 transcripts in leaf discs, while the second experiment used the time-course information to optimize tissue harvest for the actual Lynx study. For the time-course experiment, leaf discs (5 mm in diameter) were collected from fully expanded leaves of 8-week old maize plants (inbred B73) and were incubated in petri dishes containing water or water plus 10 μM BA for different time periods at 25° C. For the Lynx experiment ˜300 leaf-discs were punched from ear leaves collected from 5 different maize B73 plants at flowering. Half of the discs were floated in a large petri dish on a solution containing 10 μM BA; the other half were floated on distilled water. Discs were incubated for 6 h at 25° C. in the light, blotted-dried, frozen in liquid nitrogen, and then submitted for Lynx analysis.
Time-course experiment: This perfunctory experiment was designed to learn the kinetics of Ckx1 transcript accumulation in response to BA. Ckx1 transcript levels were induced […] after 6 hours (FIG. 1).

Ckx1 = conditions: maize leaf discs incubated with BA, compared to untreated controls; cited from earlier work
Ckx1 transcripts [2] = experiment: Lynx expression experiment, leaf discs floated on BA vs water: Ckx1; assay type: cell-based, maize B73; conditions: 10 μM BA, 6 h
Experimental: (§2) A Lynx experiment was performed to identify genes in the cytokinin signaling and metabolism pathway, as well as the carbohydrate pathway, whose expression is modulated in response to elevated cytokinin levels. One goal of this experiment was to identify response regulators that could be involved in the cytokinin-signaling pathway and could potentially act as Ckx1 transcriptional regulators.
as §1, with “Half of the discs were floated in a large petri dish on a solution containing 10 μM BA; the other half were floated on distilled water. Discs were incubated for 6 h at 25° C. in the light, blotted-dried, frozen in liquid nitrogen, and then submitted for Lynx analysis.” left out
(§3) Nevertheless, differences in levels of expression of multiple genes were detected and these are presented as genes relevant to cytokinin response, isoprenoid (or terpenoid) biosynthesis, and cell division (Table 2).
A ˜30-fold increase in Ckx1 transcripts was measured after 6 h of BA application (Table 2). […]

[3] = system: Zm response regulator 6 (ZmRR6); experiment: Lynx expression experiment, leaf discs floated on BA vs water: ZmRR6; assay type: cell-based, maize B73; conditions: 6 h
Experimental: as §2, §1, §3
(§4) A ˜30-fold increase in Ckx1 transcripts was measured after 6 h of BA application (Table 2). […] We also identified two new response regulators whose expression is induced by BA, ZmRRS and ZmRR6 (Table 2).

[4] = system: Zm Response regulator 5 (ZmRR5); experiment: Lynx expression experiment, leaf discs floated on BA vs water: ZmRR5; assay type: cell-based, maize B73; conditions: 6 h
Experimental: as §2, §1, §3, §4

c1ccc(CNc2ncnc3nc[nH]c23)cc1 [BA, benzyladenine]
Ckx1 transcript levels induced (Ckx1 transcripts [1]): ~15 fold
Ckx1 induced (Ckx1): ~60 fold
increase in Ckx1 transcripts (Ckx1 transcripts [2]): ~30 fold
Up/down regulation ([3]; 10 μM BA vs water): up
Ratio BA/Ctrl ([3]; 10 μM BA vs water, ppm ratio): 8.75
Cldba (treated sample) expression ([3]; 10 μM BA, Lynx): 70 ppm
Up/down regulation ([4]; 10 μM BA vs water): up
Ratio BA/Ctrl ([4]; 10 μM BA vs water, ppm ratio): 8.50
Cldba (treated sample) expression ([4]; 10 μM BA, Lynx): 395 ppm
